Like-named read-outs stand apart in the source and are kept apart here.

For data set [1], the system named is patients with advanced PAH. To be noted: background statement; cited from earlier work.
Data set [2] has as its system PDGFRβ isoform, PDGFRα isoform. To be noted: background statement; cited from earlier work.
Data set [3] concerns rat monocrotaline model of PAH. To be noted: background statement; cited from earlier work.
Data set [4] deals with T1, phosphorylated PDGFRβ (Y1021) (Rattus norvegicus, UniProt Q05030).
T1 construct: from tissue; host or cells: rat lung (male SD rats)
Kind of data set: Immunohistochemistry of lung sections for pPDGFRβ in the AAV-PDGFB SU5416 hypoxia model. Format: in vivo. To be noted: vs V-V and TA-V. As for the experimental part:
(§1) Four weeks later, 20 mg/kg of semaxanib (SU5416) was administered using intraperitoneal (i.p.) injection, and the rats were housed in a hypoxia chamber at fraction of inspired oxygen (FiO2) 10% for 3 weeks. […] Daily treatments were administered starting day 2 after removing the rats from the hypoxia chamber and were continued for 4 weeks (28 days). Antigen retrieval was performed using heat-induced epitope retrieval. Immunohistochemistry of lung sections was performed for PDGFBB, total PDGFRα, total PDGFRβ, pPDGFRα, and pPDGFRβ. Signal detection was performed with an EXPOSE horseradish peroxidase/diaminobenzidine (HRP/DAB) kit.

For data set [5] the following is noted: rat, in vivo, 0.4 mg/kg.
For data set [6], the target named is PDGFRβ (Homo sapiens, UniProt P09619). To be noted: human lung fibroblasts.
Data set [7] has as its target T2, pPDGFRβ (Y1021) (Rattus norvegicus, UniProt Q05030).
T2 construct: Lung tissue samples were homogenized in pH 7.4 lysis buffer; from tissue; host or cells: rat lung (male SD rats)
In words: Western blot of lung pPDGFRβ (Y1021) in the AAV-PDGFB SU5416 hypoxia model. To be noted: vs V-V and TA-V, total PDGFRβ and β actin controls. It counts as in vivo. As for the experimental part:
Four weeks later, 20 mg/kg of semaxanib (SU5416) was administered using intraperitoneal (i.p.) injection, and the rats were housed in a hypoxia chamber at fraction of inspired oxygen (FiO2) 10% for 3 weeks. […] Daily treatments were administered starting day 2 after removing the rats from the hypoxia chamber and were continued for 4 weeks (28 days). […] Lysates were normalized and separated on 7.5% or 12% polyacrylamide gels and transferred to nitrocellulose membranes. After blocking, the membranes were probed with one of the following antibodies: anti-PDGFRβ, anti-phospho ([…])-PDGFRβ, pMYPT, MYPT, pSTAT3, or STAT3. The samples were incubated overnight on a shaker, followed by a 1 hour incubation with secondary antibodies conjugated with HRP. Bound antibodies were detected by chemiluminescence using an enhanced chemiluminescence (ECL) detection system, and quantified by densitometry using a Licor C-Digit® Blot Scanner.

Data set [8] relates to AAV-PDGFB overexpression SU5416 hypoxia rat model of PH. In words: AAV-PDGFB SU5416 hypoxia study: RVSP, right ventricular hypertrophy, lumen/media ratio. It counts as in vivo.
Data set [9] concerns PDGFB gene expression. Kind of data set: PDGFB lung gene expression (RT-qPCR) in the AAV-PDGFB SU5416 hypoxia rat model. Format: in vivo. To be noted: RT-qPCR normalized to 18S, 4 weeks treatment. As for the experimental part: Four weeks later, 20 mg/kg of semaxanib (SU5416) was administered using intraperitoneal (i.p.) injection, and the rats were housed in a hypoxia chamber at fraction of inspired oxygen (FiO2) 10% for 3 weeks. […] Daily treatments were administered starting day 2 after removing the rats from the hypoxia chamber and were continued for 4 weeks (28 days). RNA from lung tissue was isolated using TRIzol™ reagent. The RNA concentration was measured using a Nanodrop™ 1000 Spectrophotometer. Equal amounts of RNA of each sample were transcribed to cDNA using a high-capacity cDNA Reverse Transcription kit. Reverse transcription (RT)-qPCR reactions were set up using TaqMan™ Gene Expression Master Mix and TaqMan™ primers/probes for PDGFB and 18S. The gene expression assay was carried out using a QuantStudio™ 6 Flex system. Gene expression was normalized to the expression of 18S, which was used as a housekeeping gene.

Data set [10] has as its target T3, phosphorylated PDGFRα (Y751) (Rattus norvegicus, UniProt P20786).
T3 construct: from tissue; host or cells: rat lung sections (male SD rats)
Kind of data set: Immunohistochemistry of lung sections for pPDGFRα in the AAV-PDGFB SU5416 hypoxia model. To be noted: vs V-V and TA-V. It counts as in vivo. As for the experimental part:
as §1

The nature of data set [11]: in vivo. To be noted: male, Sprague Dawley, rat.
Data set [12] concerns the target T2, pPDGFRβ (Y1021). Kind of data set: Western blot of pPDGFRβ (Y1021) in lung lysates of rats with pulmonary hypertension after inhaled Compound 1. Format: in vivo. To be noted: pPDGFRβ (Y1021) vs total PDGFRβ.
Setting [13] is: inhaled or intranasal, 0.4 mg/kg.

T2 sequence (Q05030 32-1097): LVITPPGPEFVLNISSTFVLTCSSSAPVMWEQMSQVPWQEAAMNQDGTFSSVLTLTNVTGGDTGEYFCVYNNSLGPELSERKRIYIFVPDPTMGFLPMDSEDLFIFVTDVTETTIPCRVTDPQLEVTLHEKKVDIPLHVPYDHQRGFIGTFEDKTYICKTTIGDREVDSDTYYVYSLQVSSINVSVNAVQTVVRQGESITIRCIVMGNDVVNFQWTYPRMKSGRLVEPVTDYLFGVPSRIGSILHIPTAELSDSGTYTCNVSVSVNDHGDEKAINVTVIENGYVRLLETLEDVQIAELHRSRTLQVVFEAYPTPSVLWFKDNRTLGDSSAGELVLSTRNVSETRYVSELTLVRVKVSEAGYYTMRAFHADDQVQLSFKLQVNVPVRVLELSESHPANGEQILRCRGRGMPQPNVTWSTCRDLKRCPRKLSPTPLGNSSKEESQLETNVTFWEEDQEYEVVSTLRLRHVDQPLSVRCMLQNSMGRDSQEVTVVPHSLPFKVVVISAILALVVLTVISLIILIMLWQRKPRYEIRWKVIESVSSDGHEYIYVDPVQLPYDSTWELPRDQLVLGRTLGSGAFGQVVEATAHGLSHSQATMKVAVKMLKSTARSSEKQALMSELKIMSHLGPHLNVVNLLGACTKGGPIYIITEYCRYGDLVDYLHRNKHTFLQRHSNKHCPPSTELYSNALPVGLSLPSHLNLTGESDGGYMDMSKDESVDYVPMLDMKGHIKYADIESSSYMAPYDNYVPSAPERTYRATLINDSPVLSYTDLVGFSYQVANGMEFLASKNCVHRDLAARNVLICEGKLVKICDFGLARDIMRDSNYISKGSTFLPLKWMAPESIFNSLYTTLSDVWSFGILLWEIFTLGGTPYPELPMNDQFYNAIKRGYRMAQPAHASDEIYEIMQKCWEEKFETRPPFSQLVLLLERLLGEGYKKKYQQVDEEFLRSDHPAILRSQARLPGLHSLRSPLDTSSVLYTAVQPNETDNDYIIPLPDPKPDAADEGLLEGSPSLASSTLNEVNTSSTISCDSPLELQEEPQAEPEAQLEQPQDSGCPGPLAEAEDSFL
Sequence of PDGFRβ (P09619 33-1106): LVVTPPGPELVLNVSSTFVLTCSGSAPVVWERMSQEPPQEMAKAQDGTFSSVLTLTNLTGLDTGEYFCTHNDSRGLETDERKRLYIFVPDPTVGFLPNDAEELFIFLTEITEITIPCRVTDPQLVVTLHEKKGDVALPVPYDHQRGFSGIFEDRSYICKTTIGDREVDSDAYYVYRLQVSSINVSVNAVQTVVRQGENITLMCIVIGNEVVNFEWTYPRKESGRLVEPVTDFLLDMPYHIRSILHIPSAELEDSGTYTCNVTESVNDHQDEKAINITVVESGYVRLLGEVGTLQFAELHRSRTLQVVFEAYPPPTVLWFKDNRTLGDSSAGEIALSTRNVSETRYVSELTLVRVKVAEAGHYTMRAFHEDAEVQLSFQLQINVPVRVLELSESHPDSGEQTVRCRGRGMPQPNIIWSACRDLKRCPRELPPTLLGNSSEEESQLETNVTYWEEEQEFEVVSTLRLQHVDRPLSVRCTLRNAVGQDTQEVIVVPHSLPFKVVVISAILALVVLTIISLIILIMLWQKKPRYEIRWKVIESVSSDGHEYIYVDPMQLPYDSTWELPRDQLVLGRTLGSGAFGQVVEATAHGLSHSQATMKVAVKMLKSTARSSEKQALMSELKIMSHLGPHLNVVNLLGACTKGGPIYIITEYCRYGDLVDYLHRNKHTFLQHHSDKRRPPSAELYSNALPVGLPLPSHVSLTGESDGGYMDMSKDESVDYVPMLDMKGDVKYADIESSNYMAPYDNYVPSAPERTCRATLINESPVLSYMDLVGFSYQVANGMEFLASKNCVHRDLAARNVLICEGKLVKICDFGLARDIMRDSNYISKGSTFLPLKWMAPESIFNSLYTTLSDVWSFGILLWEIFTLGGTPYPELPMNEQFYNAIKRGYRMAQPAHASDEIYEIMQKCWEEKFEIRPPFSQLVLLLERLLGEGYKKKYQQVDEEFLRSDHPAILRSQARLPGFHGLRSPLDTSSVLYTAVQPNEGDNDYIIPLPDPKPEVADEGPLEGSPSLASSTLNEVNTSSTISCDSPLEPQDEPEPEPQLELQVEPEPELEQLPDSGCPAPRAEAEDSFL
T1 sequence (Q05030 32-1097): as the sequence (Q05030 32-1097) above
T3 sequence (P20786 24-1088): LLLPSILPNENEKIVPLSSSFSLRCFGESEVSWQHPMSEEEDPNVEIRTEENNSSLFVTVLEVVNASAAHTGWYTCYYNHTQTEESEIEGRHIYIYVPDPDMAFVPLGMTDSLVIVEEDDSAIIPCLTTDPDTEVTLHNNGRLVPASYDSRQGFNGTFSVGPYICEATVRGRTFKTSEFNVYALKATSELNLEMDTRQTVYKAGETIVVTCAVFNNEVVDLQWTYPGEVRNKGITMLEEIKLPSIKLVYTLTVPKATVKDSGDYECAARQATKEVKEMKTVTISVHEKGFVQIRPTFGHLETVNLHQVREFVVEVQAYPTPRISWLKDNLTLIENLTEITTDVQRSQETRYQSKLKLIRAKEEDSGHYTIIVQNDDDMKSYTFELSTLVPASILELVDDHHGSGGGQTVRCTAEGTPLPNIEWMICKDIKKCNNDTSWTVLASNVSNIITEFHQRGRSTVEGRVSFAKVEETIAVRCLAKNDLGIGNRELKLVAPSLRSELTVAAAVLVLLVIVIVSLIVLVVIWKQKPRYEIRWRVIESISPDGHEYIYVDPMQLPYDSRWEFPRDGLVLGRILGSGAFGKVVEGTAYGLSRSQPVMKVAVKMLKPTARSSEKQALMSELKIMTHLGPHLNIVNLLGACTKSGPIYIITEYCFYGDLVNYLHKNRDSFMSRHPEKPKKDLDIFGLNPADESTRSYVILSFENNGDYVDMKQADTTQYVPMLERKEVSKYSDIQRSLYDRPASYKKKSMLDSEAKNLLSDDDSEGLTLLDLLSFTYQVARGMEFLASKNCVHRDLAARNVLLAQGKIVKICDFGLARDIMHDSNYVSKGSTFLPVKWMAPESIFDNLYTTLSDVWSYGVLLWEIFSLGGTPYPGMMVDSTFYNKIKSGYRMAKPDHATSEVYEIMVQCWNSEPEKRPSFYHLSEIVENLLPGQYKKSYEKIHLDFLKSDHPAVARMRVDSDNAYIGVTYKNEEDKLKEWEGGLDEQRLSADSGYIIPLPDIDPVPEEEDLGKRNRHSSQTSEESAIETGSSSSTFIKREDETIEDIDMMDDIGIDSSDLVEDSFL

Turning to `Cc1ccc(NC(=O)c2ccc(CN3CCN(C)CC3)cc2)cc1Nc1nccc(-c2cccnc2)n1` [imatinib], the cardiopulmonary hemodynamics result in [1] is reported as “improves”. Further, the “potency against PDGFR isoforms” value in data set [2] was “less potent against the PDGFRβ isoform than the PDGFRα isoform”. In addition, in data set [3], the “right ventricular systolic pressure (RVSP)” value is given as “decreases” and the survival entry is listed as “improves survival”.
Consider `COc1ccc(-c2cncc(N[C@@H](C)c3cccc(NC(=O)c4cncc(C)c4)c3)n2)cc1OC` [Compound 1], for which, in [4], the “phosphorylated PDGFRβ (Y1021) in the lungs” value is reported as “decrease”. Besides, in [5] (male, Sprague Dawley), the “maximum arterial and venous average concentrations” value is listed as “about 1 μg/mL”; the “time after administration at which average arterial and venous concentrations reached zero” value is “about 400 minutes”. Also, in data set [5] (inhaled or intranasal), the “AUC(0-inf)” value was determined as 25403.578 µg·min/g and the “AUC(0-t)” value is 23583.976 µg·min/g. In addition, the “fold more potent than imatinib at inhibiting PDGFB-stimulated phosphorylation of PDGFRβ” value in data set [6] is “about 2.5 fold”. The “pPDGFRβ (Y1021) in the lungs” value in [7] was “decreases”. Besides, the “lumen/media ratio of pulmonary arterioles” value in [8] (H&E lung sections, four weeks treatment, mean±SEM) is 0.76±0.04. In data set [8] (Table 4, four weeks treatment), the “AVG RVSP” value was determined as 44.30 mm Hg. Besides, the “% Reduction RVSP” value in [8] (Table 4, vs V-V) stood at 29%. Moreover, in data set [8] (four weeks treatment), the “decrease of RV/(LV+IVS) ratio compared to the vehicle (V-V) group” value was 25% and the “decrease of RVSP compared to vehicle (V-V)” value turned out to be 29%. Also, the RVSP in [8] (four weeks, tadalafil 10 mg/kg and ambrisentan 10 mg/kg gavage once daily, Compound 1 0.6 mg/kg inhaled twice daily, mean±SEM) came out at 44.3±1.9 mm Hg. Also, the “right ventricular hypertrophy, RV/(LV+IVS)” value in data set [8] (ratio of RV weight to LV plus interventricular septum weight, four weeks treatment, mean±SEM) is 0.36±0.01. Besides, in data set [9], the “effect on levels of PDGFB gene expression” value is given as “did not affect levels of PDGFB gene expression significantly”. Also, in data set [10], the “phosphorylated PDGFRα (Y751) in the lungs” value is recorded as “decrease”. The compound also returned a Kp in data set [11] (0.4 mg/kg) of 20 to 80. In data set [11] (setting [13]), this compound showed an AUC(0-inf) of 2130 ng·h/mL and an AUC(0-t) of 1940 ng·h/mL. The same compound showed a half-life in data set [11] (inhaled or intranasal, terminal half-life in lung (t1/2β)) of 6.43 h. Further, the half-life in [11] (inhaled or intranasal, terminal half-life in plasma) came to 2.08 h. The “pPDGFRβ levels in lung compared to animals treated with the vehicle” value in [12] is on record as “decreased pPDGFRβ levels”.

The values above are taken from patent US10231966B2, “Combination therapy for treating pulmonary hypertension” (priority 2016, dated 2019).
